Reference: patent publication US20250090540A1, “PI3K-ALPHA INHIBITORS AND METHODS OF USE THEREOF” (Relay Therapeutics, Inc., priority 2021, published 2025)

Each compound was assayed against H1047R PIK3CA enzyme (Homo sapiens, UniProt P42336, H1047R) (assay: ADP-Glo Biochemical PIK3CA Kinase Assay).
Method: Compounds to be assayed were plated in 16 doses of 1:2 serial dilutions (20 nL volume each well) on a 1536-well plate, and the plate warmed to room temperature. PIK3CA enzyme (e.g. H1047R, E542K, E545K, or wild-type) (1 μL of 2 nM solution in Enzyme Assay Buffer (comprising 50 mM HEPES pH 7.4, 50 mM NaCl, 6 mM MgCl2, 5 mM DTT and 0.03% CHAPS)) was added and shaken for 10 seconds and preincubated for 30 minutes. To the well was added 1 μL of 200 μM ATP and 20 μM of diC8-PIP2 in Substrate Assay Buffer (50 mM HEPES pH7.4, 50 mM NaCl, 5 mM DTT and 0.03% CHAPS) to start the reaction, and the plate was shaken for 10 seconds, then spun briefly at 1500 rpm, and then incubated for 60 minutes at room temperature. The reaction was stopped by adding 2 μL of ADP-Glo reagent (Promega), and spinning briefly at 1500 rpm, and then incubating for 40 minutes. ADP-Glo Detection reagent (Promega) was added and the plate spun briefly at 1500 rpm, then incubated for 30 minutes.

H1047R PIK3CA enzyme, sequence (P42336 whole entry H1047R): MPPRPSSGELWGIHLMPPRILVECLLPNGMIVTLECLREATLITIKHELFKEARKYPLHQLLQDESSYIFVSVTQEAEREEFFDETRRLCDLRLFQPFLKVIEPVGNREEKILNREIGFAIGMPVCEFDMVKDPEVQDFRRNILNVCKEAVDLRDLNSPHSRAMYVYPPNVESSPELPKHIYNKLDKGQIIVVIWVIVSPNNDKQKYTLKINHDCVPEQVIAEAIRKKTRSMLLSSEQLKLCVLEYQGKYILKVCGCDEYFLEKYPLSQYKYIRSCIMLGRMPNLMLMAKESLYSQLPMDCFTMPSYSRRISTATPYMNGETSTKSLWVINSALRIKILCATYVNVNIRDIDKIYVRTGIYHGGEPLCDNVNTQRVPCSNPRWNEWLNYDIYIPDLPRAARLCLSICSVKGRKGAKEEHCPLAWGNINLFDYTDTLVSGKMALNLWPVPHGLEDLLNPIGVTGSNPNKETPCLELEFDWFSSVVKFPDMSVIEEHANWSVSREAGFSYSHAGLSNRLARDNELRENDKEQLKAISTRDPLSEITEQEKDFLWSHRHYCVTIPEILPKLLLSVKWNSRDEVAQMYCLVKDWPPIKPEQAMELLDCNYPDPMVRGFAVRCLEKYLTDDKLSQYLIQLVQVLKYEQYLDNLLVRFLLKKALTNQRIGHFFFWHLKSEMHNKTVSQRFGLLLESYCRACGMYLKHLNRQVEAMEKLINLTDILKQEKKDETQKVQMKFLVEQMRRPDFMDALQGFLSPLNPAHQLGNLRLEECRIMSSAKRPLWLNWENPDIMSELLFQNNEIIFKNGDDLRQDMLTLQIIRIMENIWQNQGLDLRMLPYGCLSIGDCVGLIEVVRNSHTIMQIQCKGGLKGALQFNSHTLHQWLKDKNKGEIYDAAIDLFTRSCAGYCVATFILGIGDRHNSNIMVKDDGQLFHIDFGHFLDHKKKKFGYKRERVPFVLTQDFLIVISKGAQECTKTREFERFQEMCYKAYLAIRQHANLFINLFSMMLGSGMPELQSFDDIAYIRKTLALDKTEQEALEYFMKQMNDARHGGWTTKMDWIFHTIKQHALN
H1047R PIK3CA enzyme, sequence (P27986 whole entry partner): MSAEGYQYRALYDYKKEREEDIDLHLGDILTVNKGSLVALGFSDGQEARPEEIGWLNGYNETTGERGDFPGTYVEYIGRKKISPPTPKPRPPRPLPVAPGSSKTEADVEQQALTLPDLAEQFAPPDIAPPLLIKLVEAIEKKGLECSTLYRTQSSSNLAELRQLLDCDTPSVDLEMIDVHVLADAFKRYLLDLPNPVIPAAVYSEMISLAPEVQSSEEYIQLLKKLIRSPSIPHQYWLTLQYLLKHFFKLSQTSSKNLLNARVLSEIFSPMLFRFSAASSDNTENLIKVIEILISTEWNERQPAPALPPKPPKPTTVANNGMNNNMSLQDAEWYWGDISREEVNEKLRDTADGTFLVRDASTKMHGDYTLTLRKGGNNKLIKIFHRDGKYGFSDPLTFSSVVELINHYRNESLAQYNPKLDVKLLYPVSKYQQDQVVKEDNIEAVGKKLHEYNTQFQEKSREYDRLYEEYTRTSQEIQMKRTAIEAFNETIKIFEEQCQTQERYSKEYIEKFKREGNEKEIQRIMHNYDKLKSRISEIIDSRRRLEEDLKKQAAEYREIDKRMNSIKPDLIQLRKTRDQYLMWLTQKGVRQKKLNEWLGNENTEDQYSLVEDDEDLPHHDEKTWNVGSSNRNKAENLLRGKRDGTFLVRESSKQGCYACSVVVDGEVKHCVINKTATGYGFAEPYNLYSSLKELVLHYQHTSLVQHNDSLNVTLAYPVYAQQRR

SMILES | IC50
CNC(=O)c1cnc(Nc2ccccc2C)c(NC(=O)Cc2cn(C)c3ccccc23)c1 [I-167] | 10 to 100 µM
CNC(=O)c1cnc(Nc2ccccc2C)c(NC(=O)[C@@H](OC)c2ccccc2)c1 [I-169] | 10 to 100 µM
CNC(=O)c1cnc(Nc2ccccc2C)c(NC(=O)CC2CCc3ccccc32)c1 (centres unmarked) [I-170] | 10 to 100 µM
CNC(=O)c1cnc(Nc2ccccc2C)c(NC(=O)[C@]23C[C@H]4C[C@H](C[C@H](C4)C2)C3)c1 [I-171] | 1 to 10 µM
Cc1ccccc1Nc1ncc(-c2cnn(C)c2)cc1NS(=O)(=O)c1ccccc1 [I-172] | 10 to 100 µM
CNC(=O)c1cnc(Nc2cccnc2C)c(NC(=O)c2cc(F)cc(C(F)(F)F)c2)c1 [I-173] | 10 to 100 µM
CNC(=O)c1cnc(Nc2ccc(OC)cc2)c(NC(=O)c2cc(F)cc(C(F)(F)F)c2)c1 [I-174] | 10 to 100 µM
CNC(=O)c1cnc(Nc2ccccc2C)c(NC(=O)c2n[nH]c3ccccc23)c1 [I-175] | 10 to 100 µM
CNC(=O)c1cnc(Nc2ccccc2C)c(NC(=O)c2cnc3ccccc3c2)c1 [I-176] | 10 to 100 µM
CNC(=O)c1cnc(Nc2ccccc2C)c(NC(=O)c2cc(C(F)(F)F)cc(C(F)(F)F)c2)c1 [I-177] | 10 to 100 µM
Cc1ccccc1Nc1ncc(NCC(=O)O)cc1NC(=O)c1cc(F)cc(C(F)(F)F)c1 [I-179] | 1 to 10 µM
CNC(=O)c1cnc(Nc2ccccc2C)c(NC(=O)c2ccc3ccccc3c2)c1 [I-182] | 10 to 100 µM
CNC(=O)c1cnc(Nc2ccccc2C)c(NC(=O)c2ccc3ncccc3c2)c1 [I-183] | 10 to 100 µM
CNC(=O)c1cnc(Nc2ccccc2C)c(NC(=O)c2cc3ccccc3cn2)c1 [I-184] | 10 to 100 µM
CNC(=O)c1cnc(NCc2nccn2C)c(NC(=O)c2cc(F)cc(C(F)(F)F)c2)c1 [I-185] | 10 to 100 µM
Cc1ccccc1Nc1ncc(NCC(N)=O)cc1NC(=O)c1cc(F)cc(C(F)(F)F)c1 [I-186] | 1 to 10 µM
CNC(=O)c1cnc(Nc2ccccc2C)c(NC(=O)c2nc(SC)ncc2Cl)c1 [I-187] | 10 to 100 µM
CNC(=O)c1cnc(Nc2ccccc2C)c(NC(=O)c2cc(F)cc(C3CC3)c2)c1 [I-188] | 1 to 10 µM
Cc1ccccc1Nc1ncc(C(=O)NCC2(O)CCCCC2)cc1NC(=O)c1csc2ccccc12 [I-189] | 0.5 to 1 µM
Cc1ccccc1Nc1ncc(C(=O)Nc2cc[nH]c(=O)n2)cc1NC(=O)c1csc2ccccc12 [I-194] | 0.5 to 1 µM
CNC(=O)c1cnc(Nc2ccnc(C)c2)c(NC(=O)c2cc(F)cc(C(F)(F)F)c2)c1 [I-200] | 10 to 100 µM

SMILES | IC50
CNC(=O)c1cnc(Nc2ccc(C)nc2)c(NC(=O)c2cc(F)cc(C(F)(F)F)c2)c1 [I-201] | 10 to 100 µM
CNC(=O)c1cnc(N2CC3CCCN3CC2C)c(NC(=O)c2cc(F)cc(C(F)(F)F)c2)c1 (centres unmarked) [I-202] | 10 to 100 µM
CNC(=O)c1cnc(N)c(NC(=O)c2cc(F)cc(C(F)(F)F)c2)c1 [I-204] | 10 to 100 µM
CNC(=O)c1cnc(Nc2ccccc2C)c(NC(=O)c2ccc3c(n2)CCCN3)c1 [I-205] | 10 to 100 µM
COC(=O)c1cnc(Nc2ccc(C)cc2)c(NC(=O)c2csc3ccccc23)c1 [I-206] | 10 to 100 µM
CNC(=O)c1cnc(Nc2ccccc2C)c(NC(=O)c2cn(C)c3ccccc23)c1 [I-207] | 1 to 10 µM
CNC(=O)c1cnc(Nc2ccccc2C)c(NC(=O)c2csc(Cl)c2Cl)c1 [I-213] | 10 to 100 µM
CNC(=O)c1cnc(Nc2ccccc2CN)c(NC(=O)c2csc3ccccc23)c1 [I-214] | 10 to 100 µM
CC1CCc2ccccc2N1c1ncc(C(=O)NC2CS(=O)(=O)C2)cc1NC(=O)c1csc2ccccc12 (centres unmarked) [I-216] | 1 to 10 µM
CC1CCc2ccccc2N1c1ncc(C(=O)NCc2nccs2)cc1NC(=O)c1csc2ccccc12 (centres unmarked) [I-217] | 1 to 10 µM
CNC(=O)c1cnc(N2c3ccccc3CCC2C)c(NC(=O)c2csc3ccccc23)c1 (centres unmarked) [I-218] | 10 to 100 µM
Cc1ccccc1Nc1cnccc1NC(=O)c1cc(F)cc(C(F)(F)F)c1 [I-220] | 1 to 10 µM
Cc1ccccc1Nc1cnccc1NC(=O)c1csc2ccccc12 [I-221] | 1 to 10 µM
Cc1ccc(Nc2ncc(C(=O)NC3CS(=O)(=O)C3)cc2NC(=O)c2csc3ccccc23)cc1 [I-222] | 1 to 10 µM
Cc1ccc(Nc2ncc(C(=O)NCc3ccn(C)n3)cc2NC(=O)c2csc3ccccc23)cc1 [I-223] | 1 to 10 µM
Cc1ccc(Nc2ncc(C(=O)NCc3cnn(C)c3)cc2NC(=O)c2csc3ccccc23)cc1 [I-224] | 10 to 100 µM
Cc1ccc(Nc2ncc(C(=O)NCc3nccs3)cc2NC(=O)c2csc3ccccc23)cc1 [I-225] | 1 to 10 µM
CNC(=O)c1cnc(Nc2ccc(C)cc2)c(NC(=O)c2csc3ccccc23)c1 [I-226] | 10 to 100 µM
Cc1ccccc1Nc1ncc(C(=O)Nc2cc[nH]n2)cc1NC(=O)c1cc(F)cc(C(F)(F)F)c1 [I-230] | 1 to 10 µM
Cc1ccccc1Nc1ncc(C(=O)Nc2ccccc2)cc1NC(=O)c1cc(F)cc(C(F)(F)F)c1 [I-231] | 1 to 10 µM
CNC(=O)c1cnc(Nc2ccccc2C)c(NC(=O)c2nccc3ccccc23)c1 [I-233] | 10 to 100 µM

SMILES | IC50
Cc1ccccc1Nc1ncc(C(=O)Nc2ccn(C)n2)cc1NC(=O)c1cc(F)cc(C(F)(F)F)c1 [I-235] | 0.5 to 1 µM
CNC(=O)c1cnc(Nc2ccccc2C)c(NC(=O)c2ccc(F)c3ccccc23)c1 [I-236] | 10 to 100 µM
CNC(=O)c1cnc(Nc2ccccc2C)c(NC(=O)c2cccc3cnccc23)c1 [I-237] | 10 to 100 µM
CNC(=O)c1cnc(Nc2ccccc2C)c(NC(=O)c2cccc3ccncc23)c1 [I-238] | 10 to 100 µM
CNC(=O)c1cnc(Nc2ccccc2C)c(NC(=O)c2csc(C(F)(F)F)n2)c1 [I-241] | 10 to 100 µM
CNC(=O)c1cnc(Nc2ccccc2C)c(NC(=O)c2csc(C)n2)c1 [I-242] | 10 to 100 µM
CNC(=O)c1cnc(Nc2ccccc2C)c(NC(=O)c2csc(N)n2)c1 [I-243] | 10 to 100 µM
CNC(=O)c1cnc(N2CCNc3ccccc32)c(NC(=O)c2csc3ccccc23)c1 [I-244] | 10 to 100 µM
CNC(=O)c1cnc(Nc2ccccc2C)c(NC(=O)Cc2cccnc2)c1 [I-250] | 10 to 100 µM
CNC(=O)c1cnc(Nc2ccccc2C)c(NC(=O)C2CCOc3ccccc32)c1 (centres unmarked) [I-259] | 10 to 100 µM
CNC(=O)c1cnc(Nc2ccccc2C)c(NC(=O)C2CCSc3ccccc32)c1 (centres unmarked) [I-260] | 10 to 100 µM
Cc1ccc(Nc2ncc(C(=O)NCc3ccnn3C)cc2NC(=O)c2csc3ccccc23)cc1 [I-261] | 1 to 10 µM
Cc1ccccc1Nc1ncc(C(=O)Nc2ccncn2)cc1NC(=O)c1cc(F)cc(C(F)(F)F)c1 [I-262] | 0.5 to 1 µM
Cc1ccc(NC(=O)c2cnc(Nc3ccccc3C)c(NC(=O)c3cc(F)cc(C(F)(F)F)c3)c2)nc1 [I-263] | 1 to 10 µM
Cc1cnnc(NC(=O)c2cnc(Nc3ccccc3C)c(NC(=O)c3cc(F)cc(C(F)(F)F)c3)c2)c1 [I-264] | 1 to 10 µM
Cc1ccccc1Nc1ncc(C(=O)Nc2cncnc2)cc1NC(=O)c1cc(F)cc(C(F)(F)F)c1 [I-265] | 0.5 to 1 µM
Cc1ccccc1Nc1ncc(N2CCNCC2)cc1NC(=O)c1cc(F)cc(C(F)(F)F)c1 [I-268] | 0.5 to 1 µM
CNC(=O)c1cnc(Nc2ncccc2C)c(NC(=O)c2cc(F)cc(C(F)(F)F)c2)c1 [I-269] | 1 to 10 µM
Cc1ccccc1Nc1ncc(N2CCN(C(=O)OC(C)(C)C)CC2)cc1NC(=O)c1cc(F)cc(C(F)(F)F)c1 [I-270] | 1 to 10 µM
COCCn1cc(NC(=O)c2csc3ccccc23)c(N2CCOc3ccccc32)cc1=O [I-271] | 1 to 10 µM
